Data: patent US7348425B2, “Inhibitors of HCV replication” (Bristol-Myers Squibb Company, priority 2004, dated 2008)

Key:
[1] = biological target: T1, HCV NS5B RdRp genotype 1b (Hepatitis C virus genotype 1b, UniProt Q9WMX2); test: Standard HCV NS5B RdRp enzyme assay; format: biochemical; conditions: standard method
T1 construct: The protein was expressed with an 18 amino acid C-terminal truncation to enhance the solubility; made in house; host or cells: E. coli BL21 (DE3), pET21a
Procedure: HCVNS5B RdRp cloning, expression, and purification. The cDNA encoding the NS5B protein of HCV, genotype 1b, was cloned into the pET21a expression vector. The protein was expressed with an 18 amino acid C-terminal truncation to enhance the solubility. The E. coli competent cell line BL21 (DE3) was used for expression of the protein. Cultures were grown at 37° C. for ˜4 hours until the cultures reached an optical density of 2.0 at 600 nm. The cultures were cooled to 20° C. and induced with 1 mM IPTG. Fresh ampicillin was added to a final concentration of 50 μg/ml and the cells were grown overnight at 20° C.
Cell pellets (3 L) were lysed for purification to yield 15-24 mgs of purified NS5B. The lysis buffer consisted of 20 mM Tris-HCl, pH 7.4, 500 mM NaCl, 0.5% triton X-100, 1 mM DTT, 1 mM EDTA, 20% glycerol, 0.5 mg/ml lysozyme, 10 mM MgCl2, 15 ug/ml deoxyribonuclease I, and Complete TM protease inhibitor tablets (Roche). After addition of the lysis buffer, frozen cell pellets were resuspended using a tissue homogenizer. To reduce the viscosity of the sample, aliquots of the lysate were sonicated on ice using a microtip attached to a Branson sonicator. The sonicated lysate was centrifuged at 100,000×g for 1 hr at 4° C. and filtered through a 0.2 μm filter unit (Corning).
The protein was purified using three sequential chromatography steps: Heparin sepharose CL-6B, polyU sepharose 4B, and Hitrap SP sepharose (Pharmacia). The chromatography buffers were identical to the lysis buffer but contained no lysozyme, deoxyribonuclease I, MgCl2 or protease inhibitor and the NaCl concentration of the buffer was adjusted according to the requirements for charging the protein onto the column. Each column was eluted with a NaCl gradient which varied in length from 5-50 column volumes depending on the column type. After the final chromatography step, the resulting purity of the enzyme is >90% based on SDS-PAGE analysis. The enzyme was aliquoted and stored at −80° C.
Standard HCV NS5B RdRp enzyme assay. HCV RdRp genotype Ib assays were run in a final volume of 60 μl in 96 well plates (Costar 3912). The assay buffer is composed of 20 mM Hepes, pH 7.5, 2.5 mM KCl, 2.5 mM MgCl2, 1 mM DTT, 1.6 U RNAse inhibitor (Promega N2515), 0.1 mg/ml BSA (Promega R3961), and 2% glycerol. All compounds were serially diluted (3-fold) in DMSO and diluted further in water such that the final concentration of DMSO in the assay was 2%. HCV RdRp genotype 1b enzyme was used at a final concentration of 28 nM. A polyA template was used at 6 nM, and a biotinylated oligo-dT12 primer was used at 180 nM final concentration. Template was obtained commercially (Amersham 27-4110). Biotinylated primer was prepared by Sigma Genosys. ^3H-UTP was used at 0.6 μCi (0.29 μM total UTP). Reactions were initiated by the addition of enzyme, incubated at 30° C. for 60 min, and stopped by adding 25 μl of 50 mM EDTA containing SPA beads (4 μg/μl, Amersham RPNQ 0007). Plates were read on a Packard Top Count NXT after >1 hr incubation at room temperature.
The IC50 values for compounds were determined using seven different [I]. IC50 values were calculated from the inhibition using the formula y=A+((B−A)/(1+((C/x)^D))). FRET Assay Preparation. To perform the HCV FRET screening assay, 96-well cell culture plates were used. The FRET peptide (Anaspec, Inc.) (Taliani et al., Anal. Biochem. 240:60-67 (1996), hereby incorporated by reference in its entirety) contains a fluorescence donor, EDANS, near one end of the peptide and an acceptor, DABCYL, near the other end. The fluorescence of the peptide is quenched by […] resonance energy transfer (RET) between the donor and the acceptor, but as the NS3 protease cleaves the peptide the products are released from RET quenching and the fluorescence of the donor becomes apparent. […]

HCV replicon = HCV replicon luciferase assay; format: cell-based, Hepatitis C virus; conditions: luciferase method; read-out: EC50
Method in brief: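 Replicon cells, some carrying a Renilla luciferase reporter, were incubated with titrated compound at 37 °C; Alamar blue measured cytotoxicity, followed by a kinetic FRET peptide read (340/490 nm) or Dual-Glo luciferase. Activity was normalized to untreated controls after subtracting background from high-dose protease inhibitor wells; EC50 was the concentration giving 50% signal reduction.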

HCV = conditions: cited from earlier work

T1 sequence (Q9WMX2 2420-2992): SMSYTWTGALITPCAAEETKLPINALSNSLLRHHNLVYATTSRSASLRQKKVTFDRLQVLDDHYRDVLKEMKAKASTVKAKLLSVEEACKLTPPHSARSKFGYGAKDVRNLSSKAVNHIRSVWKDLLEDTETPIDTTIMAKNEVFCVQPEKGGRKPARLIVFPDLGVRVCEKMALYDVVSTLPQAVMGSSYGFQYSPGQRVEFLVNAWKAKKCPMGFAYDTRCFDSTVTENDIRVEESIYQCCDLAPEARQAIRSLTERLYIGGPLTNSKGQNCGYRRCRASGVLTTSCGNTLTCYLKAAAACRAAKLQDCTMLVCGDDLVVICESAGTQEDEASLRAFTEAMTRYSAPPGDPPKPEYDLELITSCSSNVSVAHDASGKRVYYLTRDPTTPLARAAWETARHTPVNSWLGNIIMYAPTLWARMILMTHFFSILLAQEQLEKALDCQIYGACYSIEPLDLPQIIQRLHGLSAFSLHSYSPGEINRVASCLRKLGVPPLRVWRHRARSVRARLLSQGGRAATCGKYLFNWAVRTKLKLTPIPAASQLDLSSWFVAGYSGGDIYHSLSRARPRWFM

Compound	IC50 [1]	EC50 (HCV replicon)	sustained efficacy, share of patients (HCV; HCV patients, combination therapy)	clinical results as monotherapy (HCV; compared with unmodified alpha-interferon)
O=C(O)c1ccc2c(C3CCCCC3)c3n(c2c1)CC(C(=O)N1CCCC(O)C1)Cc1ccccc1-3 (stereo not drawn) [drawing 120]	> 1000 nM	1000 to 10000 nM	–	–
O=C(O)c1ccc2c(C3CCCCC3)c3n(c2c1)CC(C(=O)N1CCCC(O)C1)Cc1ccccc1-3 (stereo not drawn) [drawing 121]	100 to 1000 nM	100 to 1000 nM	–	–
alpha-interferon and ribavirin [reference compound]	–	–	40%	–
pegylated alpha-interferon	–	–	–	superior to unmodified alpha-interferon
